# Assay results taken from ChEMBL document CHEMBL1201862, “PubChem BioAssay data set” (2004).
# Calls of active or inactive are those of the source.
# How the values were obtained:
# HEK293 [1] = experiment: cytotoxicity in HEK293T NF-kB-Luc cells, SAR follow-up, cytotoxicity control for NF-kB activator project, cell-based, resazurin fluorescence (AID 493251); assay type: functional; conditions: Homo sapiens
# [2] = cytotoxicity in HEK-293T cells, dose response, cytotoxicity control for BCR NF-kB inhibitor project, luminescence, B-cell screen hits (AID 489021); assay type: functional, cell-based;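 also: HEK-293T cells carrying an NF-kB luciferase reporter; cells exposed to compound for about 14 hours before viability readout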
# Jurkat = experiment: SAR Analysis of small molecule inhibitors of […] specific antigen receptor-induced NF-kB activation in a Jurkat cell line using a luminescence assay - Set 3. [Related pubchem assays (depositor defined):AID435022, AID435025, AID465]; assay type: functional, cell-based; conditions: Homo sapiens
# HEK293 [3] = experiment: SAR Analysis of small molecule inhibitors of B-cell specific antigen receptor-induced NF-kB activation in a HEK-293T cell line using a luminescence assay - Set 2. [Related pubchem assays (depositor defined):AID435022, AID435025, AID489021]; assay type: functional, cell-based; conditions: Homo sapiens
# [4] = biological target: T1, Mannose-6-phosphate isomerase (Homo sapiens, UniProt P34949); experiment: PMI enzyme inhibitors, confirmation, biochemical, fluorescence intensity (AID 1535)
# T1 sequence (P34949 whole entry): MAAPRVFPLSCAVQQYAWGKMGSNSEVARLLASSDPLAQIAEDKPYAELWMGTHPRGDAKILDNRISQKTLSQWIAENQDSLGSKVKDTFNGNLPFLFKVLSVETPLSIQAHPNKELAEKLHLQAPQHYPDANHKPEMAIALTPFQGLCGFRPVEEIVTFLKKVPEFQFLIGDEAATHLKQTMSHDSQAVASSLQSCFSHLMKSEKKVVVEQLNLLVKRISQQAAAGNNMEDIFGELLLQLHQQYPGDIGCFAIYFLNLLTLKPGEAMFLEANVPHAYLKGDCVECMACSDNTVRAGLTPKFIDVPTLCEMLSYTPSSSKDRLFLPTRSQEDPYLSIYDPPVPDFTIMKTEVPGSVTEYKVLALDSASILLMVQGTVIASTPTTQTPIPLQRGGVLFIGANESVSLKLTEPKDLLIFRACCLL
# Phosphomannomutase 2 = Phosphomannomutase 2 (Homo sapiens, UniProt O15305); experiment: Counter screen SAR assay for PMM2 inhibitors via a fluorescence intensity assay. [Related pubchem assays (depositor defined):AID1545, AID1574]
# BJ [5] = experiment: cytotoxicity toward BJ-TERT-LT-ST fibroblasts, dose response, cell-based, RAS-independent, luminescence (AID 1935); assay type: functional; conditions: Homo sapiens;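 also: BJ fibroblasts immortalized with TERT plus LT and ST oncogenes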
# HEK293 [6] = experiment: cells; conditions: Homo sapiens
# BJ [7] = experiment: cytotoxicity toward Ras-transformed BJeLR fibroblasts, dose response, cell-based, alamar blue fluorescence, cherrypicked samples (AID 2631); assay type: functional; conditions: Homo sapiens;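 also: confirmatory dose-response assay in RAS-dependent BJ fibroblasts engineered with TERT, LT and ST, with cytotoxicity read by fluorescence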
# HEK293 [8] = experiment: cells; conditions: Homo sapiens; remark: listed apart in the source
# BJ [9] = experiment: cytotoxicity toward BJ-TERT fibroblasts, dose response, cell-based, RAS-independent, luminescence (AID 1933); assay type: functional; conditions: Homo sapiens
# BJ [10] = experiment: cells; assay type: functional, cell-based; conditions: Homo sapiens
# [11] = cytotoxicity toward DRD oncogenic fibroblasts, dose response, cell-based, non-viral oncogenic, luminescence (AID 1934); assay type: functional; conditions: Homo sapiens
# [12] = growth induction of Burl-1 ts yeast mutant, dose response, counter-screen for SUMOylation pathway inhibitor project, whole organism, S. cerevisiae, luminescence (AID 463199); assay type: functional
# Cytochrome P450 3A4 = Cytochrome P450 3A4 (Homo sapiens, UniProt P08684);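 also: CYP3A4 tested as one member of a cytochrome P450 panel screen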
# Cytochrome P450 2D6 = Cytochrome P450 2D6 (Homo sapiens, UniProt P10635);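 also: CYP2D6 member of a cytochrome P450 panel assay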
# Cytochrome P450 2C19 = Cytochrome P450 2C19 (Homo sapiens, UniProt P33261); experiment: Cytochrome panel assay with activity outcomes. Panel member name: p450-cyp2c19 Compounds with AC50 equal or less than 10 uM are considered active; assay type: functional
# Cytochrome P450 1A2 = biological target: T2, Cytochrome P450 1A2 (Homo sapiens, UniProt P05177);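 also: PubChem cytochrome P450 panel assay, CYP1A2 panel member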
# T2 sequence (P05177 whole entry): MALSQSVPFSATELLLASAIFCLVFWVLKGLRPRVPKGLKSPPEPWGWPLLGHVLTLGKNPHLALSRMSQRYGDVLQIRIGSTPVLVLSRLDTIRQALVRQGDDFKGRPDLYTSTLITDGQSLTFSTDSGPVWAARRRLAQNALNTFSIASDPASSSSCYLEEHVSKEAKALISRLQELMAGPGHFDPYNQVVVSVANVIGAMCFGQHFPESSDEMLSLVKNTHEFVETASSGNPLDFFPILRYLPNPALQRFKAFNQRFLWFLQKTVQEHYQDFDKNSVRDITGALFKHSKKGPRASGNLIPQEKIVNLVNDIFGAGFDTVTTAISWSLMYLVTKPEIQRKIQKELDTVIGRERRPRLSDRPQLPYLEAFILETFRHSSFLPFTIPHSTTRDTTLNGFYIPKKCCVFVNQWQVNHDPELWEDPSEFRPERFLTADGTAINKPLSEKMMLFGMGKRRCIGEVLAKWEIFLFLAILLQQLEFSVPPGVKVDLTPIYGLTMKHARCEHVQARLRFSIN
# Cytochrome P450 2C9 = Cytochrome P450 2C9 (Homo sapiens, UniProt P11712)
# Chain of Cytochrome P450 2C9 (P11712 whole entry): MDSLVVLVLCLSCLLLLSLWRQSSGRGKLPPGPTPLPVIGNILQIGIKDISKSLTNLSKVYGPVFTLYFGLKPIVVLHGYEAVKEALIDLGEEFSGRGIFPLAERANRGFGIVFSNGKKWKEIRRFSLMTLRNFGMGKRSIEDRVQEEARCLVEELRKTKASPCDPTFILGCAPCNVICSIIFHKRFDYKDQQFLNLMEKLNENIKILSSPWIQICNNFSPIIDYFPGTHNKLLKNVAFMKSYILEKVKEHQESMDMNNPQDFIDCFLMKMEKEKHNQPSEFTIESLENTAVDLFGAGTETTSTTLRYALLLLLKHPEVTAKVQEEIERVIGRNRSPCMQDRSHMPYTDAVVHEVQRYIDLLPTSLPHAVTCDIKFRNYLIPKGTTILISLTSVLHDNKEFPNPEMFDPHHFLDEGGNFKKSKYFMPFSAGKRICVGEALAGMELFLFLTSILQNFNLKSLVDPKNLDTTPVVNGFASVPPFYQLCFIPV
# Chain of Cytochrome P450 2D6 (P10635 whole entry): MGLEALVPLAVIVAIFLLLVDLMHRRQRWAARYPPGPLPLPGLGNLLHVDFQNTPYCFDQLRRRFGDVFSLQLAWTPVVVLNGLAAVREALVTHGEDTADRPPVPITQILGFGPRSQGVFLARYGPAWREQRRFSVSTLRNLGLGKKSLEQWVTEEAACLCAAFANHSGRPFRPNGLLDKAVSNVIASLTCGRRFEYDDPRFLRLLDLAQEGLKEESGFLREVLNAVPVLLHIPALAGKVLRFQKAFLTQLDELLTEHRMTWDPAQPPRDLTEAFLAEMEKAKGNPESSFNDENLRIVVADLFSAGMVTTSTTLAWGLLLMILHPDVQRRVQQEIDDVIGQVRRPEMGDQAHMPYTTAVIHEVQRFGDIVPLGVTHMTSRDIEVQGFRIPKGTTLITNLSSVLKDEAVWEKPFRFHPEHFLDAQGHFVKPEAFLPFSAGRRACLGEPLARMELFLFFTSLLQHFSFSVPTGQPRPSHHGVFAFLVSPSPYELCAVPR
# Chain of Cytochrome P450 2C19 (P33261 whole entry): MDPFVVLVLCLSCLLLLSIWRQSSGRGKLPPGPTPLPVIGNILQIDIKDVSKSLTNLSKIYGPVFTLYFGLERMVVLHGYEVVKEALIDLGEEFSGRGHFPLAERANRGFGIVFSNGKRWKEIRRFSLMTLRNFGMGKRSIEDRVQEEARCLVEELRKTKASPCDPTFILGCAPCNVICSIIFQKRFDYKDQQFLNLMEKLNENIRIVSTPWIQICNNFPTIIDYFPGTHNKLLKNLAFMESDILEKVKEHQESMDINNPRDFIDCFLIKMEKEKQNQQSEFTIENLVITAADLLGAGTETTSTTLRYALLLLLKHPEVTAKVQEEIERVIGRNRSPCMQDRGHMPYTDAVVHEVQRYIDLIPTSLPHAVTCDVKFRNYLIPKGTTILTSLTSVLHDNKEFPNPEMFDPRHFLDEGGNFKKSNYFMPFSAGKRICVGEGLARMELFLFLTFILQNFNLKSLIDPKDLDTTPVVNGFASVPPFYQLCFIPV
# Chain of Phosphomannomutase 2 (O15305 whole entry): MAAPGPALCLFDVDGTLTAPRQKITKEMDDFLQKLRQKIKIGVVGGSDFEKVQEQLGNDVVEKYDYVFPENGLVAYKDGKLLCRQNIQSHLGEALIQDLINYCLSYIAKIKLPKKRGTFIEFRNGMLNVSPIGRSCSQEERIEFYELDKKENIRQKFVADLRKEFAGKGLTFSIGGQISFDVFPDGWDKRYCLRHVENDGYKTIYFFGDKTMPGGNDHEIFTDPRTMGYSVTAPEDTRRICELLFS
# Chain of Cytochrome P450 3A4 (P08684 whole entry): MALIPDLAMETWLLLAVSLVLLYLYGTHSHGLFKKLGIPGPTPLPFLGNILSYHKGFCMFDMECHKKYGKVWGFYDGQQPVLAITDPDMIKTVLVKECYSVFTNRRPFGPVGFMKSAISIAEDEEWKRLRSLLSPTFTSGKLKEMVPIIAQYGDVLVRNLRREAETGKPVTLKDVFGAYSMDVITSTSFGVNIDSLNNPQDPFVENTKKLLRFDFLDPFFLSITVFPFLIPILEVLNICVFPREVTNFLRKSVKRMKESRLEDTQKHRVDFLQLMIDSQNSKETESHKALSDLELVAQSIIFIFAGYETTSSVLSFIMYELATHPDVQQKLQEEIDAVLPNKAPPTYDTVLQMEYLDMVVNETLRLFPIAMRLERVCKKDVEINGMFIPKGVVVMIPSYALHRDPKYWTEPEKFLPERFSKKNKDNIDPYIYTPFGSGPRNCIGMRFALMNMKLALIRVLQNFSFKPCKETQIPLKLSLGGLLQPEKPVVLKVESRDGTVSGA
compound,measurement,setting,value
CCCNC(=O)CSCc1nc(-c2ccc(SC)cc2)oc1C,IC50,HEK293 [1],> 80 µM (inactive)
same,IC50,[2],> 80 µM (inactive)
same,IC50,Jurkat,> 80 µM (inactive)
same,IC50,HEK293 [3],42.5 µM (inactive)
Cc1ccc(/N=c2\ssnc2Cl)c([N+](=O)[O-])c1,IC50,[4],4.44 µM (active)
same,IC50,Phosphomannomutase 2,96.2 µM (active)
CC(C)c1cc(C(=O)N/N=C/C(Br)=C/c2ccccc2)[nH]n1,EC50,BJ [5],> 150 µM (inconclusive)
same,EC50,HEK293 [6],> 59.7 µM (inactive)
same,EC50,BJ [7],22.2 µM (active)
same,EC50,HEK293 [8],> 59.7 µM (inactive)
same,EC50,BJ [9],29.6 µM (active)
same,EC50,BJ [10],4.12 µM (active)
same,EC50,[11],5.12 µM (active)
same,AC50,[12],137 µM (active)
O=C(O)c1cc2ccccc2c(Cc2c(O)c(C(=O)O)cc3ccccc23)c1O [PAMOIC ACID],AC50,Cytochrome P450 3A4,inactive
same,AC50,Cytochrome P450 2D6,inactive
same,AC50,Cytochrome P450 2C19,inactive
same,AC50,Cytochrome P450 1A2,inactive
same,AC50,Cytochrome P450 2C9,inactive
